Laboratory results as given in publication PMC9317481, “Design and Synthesis of New Hydantoin Acetanilide Derivatives as Anti-NSCLC Targeting EGFR^L858R/T790M Mutations” (Pharmaceuticals, 2022).

Experiments:
EGFR^WT = EGFR^WT (Homo sapiens, UniProt P00533); test: EGFR kinase assay (wild type)
Akt = Akt enzyme assay (Phospho-Ser473 ELISA) in A549 cells; assay type: cell-based, human; details: read-out: Enzymatic Inhibition, IC50, (nM) Akt
Method: Akt expression level was assayed using the Phospho Sandwich Akt (Phospho-Ser473) ELISA Kit (Cat. # MBS9511022, MyBioSource, San Diego, CA, USA) containing the components necessary for the semi-quantitative determination of Akt concentrations within experimental cell lysate samples. The assay was performed according to company protocols: the lysates were diluted with assay diluent and 100 μL/well was dispensed, wrapped with parafilm, and incubated for 2 h. They were shaken with RT or overnight at 4 °C. The plate was washed 3 times with 1× Wash Buffer 300 μL/well with a vacuum-based plate washer. Then, the plate was stricken on absorbent paper to remove as much residual liquid as possible. The Detection Antibody was diluted to 1× and 100 μL/well was dispensed, wrapped with parafilm, and incubated on a shaker for 2 hrs at RT, and the washing step was repeated. Streptavidin-HRP was diluted to 1× and 100 μL/well was dispensed, wrapped with parafilm, and incubated on a shaker for 30 min at RT. Ready-to-use substrate was brought to RT and 100 μL/well was dispensed and the reaction was allowed to incubate on an orbital shaker for 20–30 min. The reaction was stopped with stop solution 100 μL/well. The wells turned from blue to yellow and were read at 450 nm.

[1] = tested on: A549, H1975, and PC9 cell lines; test: MTT antiproliferative assay, average of the three NSCLC cell lines; details: Homo sapiens, read-out: IC50 (µM) Average
A549 cells [2] = test: Wound healing assay in A549 cells; assay type: cell-based, human; details: 0.5, 1 or 2 µM, 72 h
Method: Various articles have highlighted the role of EGFR in the migration of tumor cells. Accordingly, the migratory effects of 5a in A549 cells were assessed using a wound healing assay.
Wound healing assay of 5a was performed using CytoSelect™ 24-well Wound Healing Assay kit (Cat. # CBA-120, Cell Biolabs Inc., Cambridge, UK) per manufacturer’s instructions. In brief, the 24-well plate wound healing inserts were allowed to warm up at room temperature for 10 min., then to each well, 500 µL of A549 cells suspension ([…]) in media containing 10% fetal bovine serum (FBS) was added. Cells were kept in a cell culture incubator until a monolayer formed. Carefully, the insert was removed from the well. The media were slowly aspirated and discarded from the wells. The wells were washed with media to remove dead cells and debris. Finally, the media were added to wells to keep cells hydrated, then wells were visualized under a light microscope. Media containing the indicated concentrations of compound 5a (0.5, 1, or 2 µM) were then added into the wells for 72 h. the wound closure was monitored with a light microscope. The percent closure of the cells into the wound field was measured.

A549 cells [3] = test: Cell cycle analysis by flow cytometry in A549 cells; assay type: cell-based, human; details: 5a at its IC50 value
Method: (§1) The active hydantoin derivative 5a was further investigated for its effect on cell cycle progression and the induction of apoptosis in A549 cells. Exposure of A549 cells to 5a at its IC50 value led to an interference with the normal cell cycle distribution of the cell (Figure 5). […] Meanwhile, 5a was evaluated for its ability to induce apoptosis in A549 cells by staining with propidium iodide and Annexin V-FITC.
(§2) Cell cycle analysis and Annexin V-FITC apoptosis assay were performed as described earlier.
Figure 5 Compound 5a arrested the cell cycle at the sub G1 and S phases in A549 cells. Representative cell cycle distribution data are shown by flow cytometric analysis upon incubation with 5a or DMSO as a negative control for 24 h.

EGFR phosphorylation = molecular target: T1, EGFR phosphorylation (Homo sapiens, UniProt P00533); test: Western blot of EGFR phosphorylation expression in A549 cells; assay type: cell-based
T1 construct: A549 (harbor EGFR^WT); endogenous in cells; host or cells: A549
Method: In addition, the obtained data were attuned to β-actin expression to exclude the deviations further.
The western blot experiment was performed according to the same procedure described earlier.

WI-38 normal cells = test: MTT cytotoxicity on normal fibroblast WI-38 cells; details: for IC50: Homo sapiens, WI-38, read-out: WI-38, IC50 (µM); for fold superior to the reference erlotinib on WI-38: ratio of WI-38 IC50 versus erlotinib
Method: The new prepared candidates 5a–5n were evaluated for their antitumor activities against four selected cell lines, the adenocarcinomic human alveolar basal epithelial cells NCI-A549, NCI-H1975, human pulmonary adenocarcinoma PC9, and the fibroblast-like fetal lung cells WI-38 (purchased from American Type Culture Collection (ATCC), United States of America), using an MTT assay [26], as described earlier [27].

A549 cells [4] = test: MTT antiproliferative assay, A549; details: Homo sapiens, A549, read-out: IC50 (µM) A549
EGFR^T790M = EGFR^T790M (Homo sapiens, UniProt P00533, T790M); test: EGFR kinase assay (T790M)
ERK = ERK enzyme assay (ELISA) in A549 cells; assay type: cell-based, human; details: read-out: Enzymatic Inhibition, IC50, (nM) ERK
Method: ERK ELISA Kit (Cat. # E4317-100, BioVision, Inc., Waltham, MA, USA) was used for the in vitro quantitative determination of Human ERK. Firstly, the plate was washed 2 times with Wash Solution before the standard, sample, and control wells were added. A total of 100 μL of each standard or sample was added into appropriate wells. […] The cover was removed and the plate content was discarded without washing or letting the wells completely dry. A total of 0.1 mL of Biotin-detection antibody work solution was added into the above wells. […] The solution was discarded and washed 3 times with Wash Solution. It was washed by filling each well with Wash Buffer (350 μL) using a multi-channel pipette or auto-washer. It was soaked for 1–2 min, and then all residual wash-liquid was removed from the wells by aspiration. After the last wash, any remaining wash buffer was removed by aspirating or decanting. The plate was clapped on absorbent filter papers or other absorbent materials. […] The solution was discarded and washed 5 times with wash solution as mentioned before. […] A total of 50 μL of Stop Solution was added to each well. The result was read at 450 nm within 20 min.

EGFR^L858R = EGFR^L858R (Homo sapiens, UniProt P00533, L858R); test: EGFR kinase assay (L858R)
A549 cells [5] = test: Annexin V-FITC/propidium iodide apoptosis assay in A549 cells; assay type: cell-based, human; details: IC50 concentration
Method: as §1, §2
Figure 6 Apoptotic effect of compound 5a on A549 cells. Representative cytograms of apoptotic A549 cells stimulated with 5a or DMSO as a negative control for 24 h. TEXT PRINTED IN THE PICTURE: Control: Necrosis 0.94%; Late apoptosis 0.26%; Early apoptosis 0.41% | 5a: Necrosis 11.59%; Late apoptosis 19.89%; Early apoptosis 3.77%

PC9 cells = test: MTT antiproliferative assay, PC9; details: Homo sapiens, PC-9, read-out: IC50 (µM) PC9
H1975 cells = test: MTT antiproliferative assay, H1975; details: Homo sapiens, NCI-H1975, read-out: IC50 (µM) H1975
[6] = A549 cells treated by 5a, Western blot

Row | SMILES | IC50 [1] [µM] | IC50 (A549 cells [4]) [µM] | IC50 (PC9 cells) [µM] | IC50 (H1975 cells) [µM] | melting point [°C] | other results
1 | CC1(c2ccccc2)NC(=O)N(CC(=O)Nc2ccc(F)c(F)c2)C1=O (stereo not shown) [5h, N-(3,4-difluorophenyl)-2-(4-methyl-2,5-dioxo-4-phenylimidazolidin-1-yl)acetamide] | 16.2 | 11.9 ± 0.75 | 15.4 ± 1.67 | 21.3 ± 1.16 | 195 to 198 | –
2 | CC1(c2ccccc2)NC(=O)N(CC(=O)Nc2cccc(F)c2)C1=O (stereo not shown) [5g, N-(3-fluorophenyl)-2-(4-methyl-2,5-dioxo-4-phenylimidazolidin-1-yl)acetamide] | 18.7 | 37.6 ± 2.37 | 11.5 ± 1.25 | 6.84 ± 0.37 | 182 to 185 | –
3 | CC1(c2ccccc2)NC(=O)N(CC(=O)Nc2ccc(F)c(Cl)c2)C1=O (stereo not shown) [5k, N-(3-chloro-4-fluorophenyl)-2-(4-methyl-2,5-dioxo-4-phenylimidazolidin-1-yl)acetamide] | 25.9 | 68.6 ± 4.32 | 3.25 ± 0.35 | 5.84 ± 0.32 | 170 to 173 | –
4 | CC1(c2ccccc2)NC(=O)N(CC(=O)Nc2ccc(F)c(F)c2F)C1=O (stereo not shown) [5i, N-(2,3,4-trifluorophenyl)-2-(4-methyl-2,5-dioxo-4-phenylimidazolidin-1-yl)acetamide] | 6.93 | 0.73 ± 0.05 | 6.06 ± 0.35 | 14 ± 0.76 | 205 to 210 | –
5 | CCOc1ccc(NC(=O)CN2C(=O)NC(C)(c3ccccc3)C2=O)cc1 (stereo not shown) [5l, N-(4-ethoxyphenyl)-2-(4-methyl-2,5-dioxo-4-phenylimidazolidin-1-yl)acetamide] | 17.6 | 2.37 ± 0.15 | 6.69 ± 0.73 | 43.8 ± 2.39 | 153 to 155 | –
6 | CC1(c2ccccc2)NC(=O)N(CC(=O)Nc2ccccc2F)C1=O (stereo not shown) [5f, N-(2-fluorophenyl)-2-(4-methyl-2,5-dioxo-4-phenylimidazolidin-1-yl)acetamide] | 2.57 | 1.94 ± 0.12 | 4.4 ± 0.48 | 1.38 ± 0.07 | 153 to 155 | IC50 (EGFR^WT): 0.06 ± 0.011 µM; IC50 (WI-38 normal cells): 42.5 ± 2.32 µM; fold superior to the reference erlotinib on WI-38 (WI-38 normal cells): 2.3 fold; IC50 (EGFR^T790M): 0.26 ± 0.005 µM; IC50 (EGFR^L858R): 0.17 ± 0.003 µM
7 | CC1(c2ccccc2)NC(=O)N(CC(=O)Nc2ccc(F)cc2)C1=O (stereo not shown) [5e, N-(4-fluorophenyl)-2-(4-methyl-2,5-dioxo-4-phenylimidazolidin-1-yl)acetamide] | 6.35 | 7.19 ± 0.45 | 2.52 ± 0.27 | 9.34 ± 0.51 | 226 to 228 | –
8 | C#Cc1cccc(Nc2ncnc3cc(OCCOC)c(OCCOC)cc23)c1 [Erlotinib, erlotinib, reference compound] | 11.3 | 7.81 ± 0.43 | 16.3 ± 0.84 | 9.7 ± 0.53 | – | IC50 (Akt): 25.4 nM; IC50 (WI-38 normal cells): 18.6 ± 1.24 µM; IC50 (ERK): 17.5 ± 0.18 nM
9 | CC1(c2ccccc2)NC(=O)N(CC(=O)Nc2ccc(S(N)(=O)=O)cc2)C1=O (stereo not shown) [5b, N-(4-aminosulphonylphenyl)-2-(4-methyl-2,5-dioxo-4-phenylimidazolidin-1-yl)acetamide] | 9.29 | 14.5 ± 0.92 | 5.12 ± 0.56 | 8.2 ± 0.45 | 122 to 125 | –

Second part, led by results:

Row | IC50 [1] [µM] | IC50 (A549 cells [4]) [µM] | IC50 (PC9 cells) [µM] | IC50 (H1975 cells) [µM] | melting point [°C] | SMILES | other results
10 | 4.79 | 2.26 ± 0.12 | 10.2 ± 0.53 | 1.94 ± 0.25 | – | COc1ccc(NC(=O)CN2C(=O)NC(C)(c3ccccc3)C2=O)cc1OC (stereo not shown) [5a, N -(3,4-dimethoxyphenyl)-2-(4-methyl-2,5-dioxo-4-phenylimidazolidin-1-yl)acetamide] | IC50 (EGFR^WT): 0.03 ± 0.005 µM; IC50 (Akt): 33.8 ± 0.55 nM; wound closure and migration of A549 cells (A549 cells [2]): reduced the wound closure and the migration of A549 cells substantially in a dose-dependent manner; boost of cells at pre-G1 compared to the control (A549 cells [3]): 22 folds; cells at S phase (A549 cells [3]; 24 h): 40.40%; cells at sub G1 phase (A549 cells [3]; 24 h): 35.25%; OD (EGFR) (EGFR phosphorylation; [6]): 0.79; OD (pEGFR) (EGFR phosphorylation; [6]): 0.33; fold decrease in expression level of EGFR phosphorylation compared to control (EGFR phosphorylation; A549 cells, 0.03 µM of 5a, normalised to β-actin): 2.5 fold; IC50 (WI-38 normal cells): 49.3 ± 2.75 µM; fold superior to the reference erlotinib on WI-38 (WI-38 normal cells): 2.6 fold; IC50 (EGFR^T790M): 0.09 ± 0.002 µM; IC50 (ERK): 25.8 ± 41 nM; IC50 (EGFR^L858R): 0.05 ± 0.001 µM; elevation of early apoptotic cells compared to the negative control (A549 cells [5]): 77 folds; elevation of late apoptotic cells compared to the negative control (A549 cells [5]): 9 folds; Early apoptosis (A549 cells [5]; 24 h): 3.77%; Late apoptosis (A549 cells [5]; 24 h): 19.89%; Necrosis (A549 cells [5]; 24 h): 11.59%
11 | 14.3 | 12.3 ± 0.78 | 28.3 ± 3.08 | 2.27 ± 0.12 | 85 to 90 | COc1ccccc1NC(=O)CN1C(=O)NC(C)(c2ccccc2)C1=O (stereo not shown) [5m, N-(2-methoxyphenyl)-2-(4-methyl-2,5-dioxo-4-phenylimidazolidin-1-yl)acetamide] | –
12 | 15 | 4.11 ± 0.26 | 9.97 ± 1.08 | 30.9 ± 1.68 | 143 to 146 | COc1ccc(NC(=O)CN2C(=O)NC(C)(c3ccccc3)C2=O)c(C)c1 (stereo not shown) [5j, N-(4-methoxy-2-methylphenyl)-2-(4-methyl-2,5-dioxo-4-phenylimidazolidin-1-yl)acetamide] | –
13 | 56 | 91.4 ± 5.75 | 21.3 ± 2.31 | 55.3 ± 3.01 | 163 to 166 | COc1ccc(NC(=O)CN2C(=O)NC(C)(c3ccccc3)C2=O)cc1Cl (stereo not shown) [5c, N-(3-chloro-4-methoxyphenyl)-2-(4-methyl-2,5-dioxo-4-phenylimidazolidin-1-yl)acetamide] | –
14 | 8.7 | 0.42 ± 0.03 | 6.87 ± 0.75 | 18.8 ± 1.02 | 148 to 151 | COc1cccc(NC(=O)CN2C(=O)NC(C)(c3ccccc3)C2=O)c1 (stereo not shown) [5n, N-(3-methoxyphenyl)-2-(4-methyl-2,5-dioxo-4-phenylimidazolidin-1-yl)acetamide] | –
15 | 18.4 | 35.8 ± 2.26 | 7.5 ± 0.81 | 11.9 ± 0.65 | 170 to 173 | COc1ccc(C)cc1NC(=O)CN1C(=O)NC(C)(c2ccccc2)C1=O (stereo not shown) [5d, N-(2-methoxy-5-methylphenyl)-2-(4-methyl-2,5-dioxo-4-phenylimidazolidin-1-yl)acetamide] | –
